Source: PMC7812675 (ACS Medicinal Chemistry Letters, 2020)
Where two headings read alike, the source gives them in different places. Square brackets hold non-standard residues; d marks the D form. Peptide text beside a SMILES is read from it. Hyp = O=C(O)[C@@H]1C[C@@H](O)CN1

Assays:
MsCI4 (MsCI4WW/FF) [1] = target: T1, MsCI4 (MsCI4WW/FF) (Magnetospirillum gryphiswaldense, UniProt A4TVL0, W36F/W59F); details: cited from earlier work
MsCI4 (MsCI4WW/FF) [2] = target: T1, MsCI4 (MsCI4WW/FF); details: MANT-uracil reporter
[3] = target: T2, VHL/EloB/EloC complex (VBC) (Homo sapiens, UniProt P40337); experiment: Competitive MST assay, unlabeled peptides against VHL and FAM reporter peptide; format: binding; details: ± confidence interval
T2 construct: VHL54-213 fused to an N-terminal TwinStrep-tag; TwinStrep-tag (TEV site) (N, cleaved yes); made in house; host or cells: E. coli BL21(DE3)

[4] = target: T3, human CRBN (hCRBN) thalidomide binding domain (hTBD) (Homo sapiens, UniProt Q96SW2); experiment: Competitive MST assay with BODIPY-uracil reporter and hTBD; details: for binding to hTBD in the MST assay (words; n.b., no binding): 10 µM hTBD/200 nM BODIPY-uracil
T3 construct: 319-425; GST (thrombin site) (N, cleaved yes); made in house; host or cells: E. coli Rosetta 2(DE3)pLysS

[5] = target: T4, Magnetospirillum gryphiswaldense cereblon isoform 4 (MsCI4) (Magnetospirillum gryphiswaldense, UniProt A4TVL0); format: binding; details: competitive DMSO titration
T4 construct: made in house
T4 sequence (A4TVL0 1-124): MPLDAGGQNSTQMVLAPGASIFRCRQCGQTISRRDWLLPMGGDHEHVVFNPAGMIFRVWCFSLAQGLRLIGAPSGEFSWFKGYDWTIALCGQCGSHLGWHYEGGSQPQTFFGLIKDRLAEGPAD

[6] = target: T3, human CRBN (hCRBN) thalidomide binding domain (hTBD); experiment: Initial fluorescence (quenching) titration of hTBD against BODIPY-uracil; details: initial fluorescence measurement, 200 nM BODIPY-uracil
[7] = target: T4, Magnetospirillum gryphiswaldense cereblon isoform 4 (MsCI4); format: binding; details: initial fluorescence measurement, 200 nM BODIPY-uracil
[8] = IC50, FAM-11mer competition, 570 nM VBC/20 nM FAM-11mer reporter
[9] = IC50, FAM-19mer competition, 80 nM VBC/20 nM FAM-19mer reporter

O=c1ccn([C@@H]2O[C@H](CO)[C@@H](O)[C@H]2O)c(=O)[nH]1 [Uridine, uridine]
affinity to MsCI4 in the FRET assay (MsCI4 (MsCI4WW/FF) [1]): high affinity

O=C1CN(/N=C/c2ccccc2)C(=O)N1 [1-Benzylidene-aminohydantoin, 1-benzylideneaminohydantoin]
binding to MsCI4 in the FRET assay (words) (MsCI4 (MsCI4WW/FF) [2]): absence of affinity

CC[C@H](C)[C@H](NC(=O)[C@H](Cc1ccc(O)cc1)NC(=O)[C@@H]1C[C@@H](O)CN1C(=O)[C@H](C)NC(=O)[C@H](CC(C)C)NC(=O)[C@H](C)NC(=O)[C@H](CCC(=O)O)NC(=O)[C@@H](N)CC(=O)O)C(=O)N1CCC[C@H]1C(=O)N[C@@H](CCSC)C(=O)N[C@@H](CC(=O)O)C(=O)N[C@@H](CC(=O)O)C(=O)N[C@@H](CC(=O)O)C(=O)N[C@@H](Cc1ccccc1)C(=O)N[C@@H](CCC(N)=O)C(=O)N[C@@H](CC(C)C)C(=O)N[C@@H](CCCNC(=N)N)C(=O)N[C@@H](CO)C(=O)N[C@@H](Cc1ccccc1)C(=O)O [19mer]
IC50 [3, 8]: 803 ± 450 nM | IC50 [3, 9]: 572 ± 260 nM

DMSO
Ki as corresponding concentration of DMSO, hTBD ([4]; competitive DMSO titration): 1.0 % (v/v) | Ki as corresponding concentration of DMSO, MsCI4 [5]: 0.08 % (v/v)

O=C1CN(/N=C/c2ccc([N+](=O)[O-])o2)C(=O)N1 [Nitrofurantoin, nitrofurantoin]
binding to hTBD in the MST assay (words; n.b., no binding) [4]: did not show any binding | binding to MsCI4 in the FRET assay (words) (MsCI4 (MsCI4WW/FF) [2]): do not show binding | binding to MsCI4 in the FRET assay (words) (MsCI4 (MsCI4WW/FF) [2]; listed as nitrofurantoin): did not show any binding

CC[C@H](C)[C@H](NC(=O)[C@H](Cc1ccc(O)cc1)NC(=O)[C@@H]1C[C@@H](O)CN1C(=O)[C@H](C)NC(=O)[C@H](CC(C)C)NC(=O)[C@H](C)NC(=O)[C@H](CCC(=O)O)NC(=O)[C@@H](N)CC(=O)O)C(=O)N1CCC[C@H]1C(=O)N[C@@H](CCSC)C(=O)N[C@@H](CC(=O)O)C(=O)O [11mer] (H-DEALA[Hyp]YIPMD-OH)
IC50 [3, 8]: 1800 ± 810 nM | IC50 [3, 9]: 1420 ± 950 nM

O=C1CN(/N=C/c2ccccc2[N+](=O)[O-])C(=O)N1 [2-NP-AHD, 1-(2-nitrobenzylideneamino)hydantoin]
binding to MsCI4 in the FRET assay (words) (MsCI4 (MsCI4WW/FF) [2]): absence of affinity

O=c1ccn([C@@H]2O[C@H](COP(=O)(O)O)[C@@H](O)[C@H]2O)c(=O)[nH]1 [UMP, uridine-5′-monophosphate]
binding to hTBD in the MST assay (words; n.b., no binding) [4]: abolished binding completely

CC1=CC(C)=[N+]2C1=C(CCC(=O)NCCn1ccc(=O)[nH]c1=O)c1c(C)cc(C)n1[B-]2(F)F [BODIPY-uracil]
Kd [6]: 11000 nM | Kd [7]: 3800 nM
